In US12540118B2, “Dendrene amide compound, bactericide and use thereof” (Jiangsu Flag Chemical Industry Co., Ltd., priority 2020, dated 2026):
Like-named read-outs stand apart in the source and are kept apart here.

How the values were obtained:
Phytophthora capsici = assay: Mycelial growth rate method; type: cell-based
Sclerotinia sclerotiorum = assay: Mycelial growth rate method; type: cell-based
Sphaerotheca fuliginea [1] = assay: Field test of sphaerotheca fuliginea; type: in vivo
Method: The test is carried out according to GB/T17980.30-2000 of pesticide field efficacy test guidelines. The survey method is to randomly take four points for each cell and survey all leaves of 2 plants per point. And investigating the sphaerotheca fuliginea incidence before the first application, and investigating the sphaerotheca fuliginea incidence 7 and 14 days after the second application respectively, and calculating the disease index and the controlling effect.

Gibberella zeae = type: cell-based
Alternaria solani = assay: Mycelial growth rate method; type: cell-based
Fusarium fujikura [2] = assay: Protective activity against rice bakanae disease; type: in vivo; settings: 5 μg/mL, solvent DMSO
Description: (§1) Test of protective activity and therapeutic activity of Compound 1 against rice bakanae disease.
(§2) The test and investigation method refers to SOP-SC-1112 rice bakanae disease potting method in disinfectant rolls written by KANGZHUO and GUBAOGEN in “Standard operation specification for testing biological activity of pesticides”.
(§3) The phenamacril is a mainstream medicament for preventing and treating the rice bakanae disease at present, resistant strains are more and more along with long-time use, and […] strains showing sensitivity and one strain showing resistance to the […] are selected as test strains.
(§4) Four Fusarium fujikura SX18-32, SX18-50, SX18-59 and SX18-63 are selected for testing strains, and the current mainstream commercial bactericide phenamacril is selected as a positive control. Wherein SX18-32, SX18-50 and SX18-59 show sensitivity to phenamacril and SX18-63 show resistance to phenamacril.

Fusarium fujikura [3] = assay: Therapeutic activity against rice bakanae disease; type: in vivo; settings: 5 μg/mL, solvent DMSO
Description: as §1, §2, §3, §4

Alternaria alternata = assay: Mycelial growth rate method; type: cell-based
Sphaerotheca fuliginea [4] = assay: Sphaerotheca fuliginea potting method; type: in vivo; settings: Podosphaera fuliginea; 100 mg/L; read-out: Sphaerotheca fuliginea control rating
Method: The fungicidal activity of the control agents and target compounds are determined. The test and investigation method refers to SOP-SC-1101 sphaerotheca fuliginea potting method in disinfectant rolls written by KANGZHUO and GUBAOGEN in “Standard operation specification for testing biological activity of pesticides”.

Rhizoctonia cerealis = assay: Mycelial growth rate method; type: cell-based
Erysiphe graminis = Erysiphe graminis potting method; type: in vivo; settings: Blumeria graminis; 100 mg/L; read-out: Erysiphe graminis control rating
Method: The fungicidal activity of the control agents and target compounds are determined. The test and investigation method refers to SOP-SC-1116 Erysiphe graminis potting method in disinfectant rolls written by KANGZHUO and GUBAOGEN in “Standard operation specification for testing biological activity of pesticides”.

Corn big spot = assay: Mycelial growth rate method; type: cell-based
succinate dehydrogenase = target: T1, succinate dehydrogenase (Sus scrofa, UniProt A5GZW8+D0VWV4+Q007T0); assay: Enzyme activity assay, succinate dehydrogenase (DCIP reduction); type: biochemical, porcine; settings: read-out: Inhibitors (10 μM, SQR)
T1 construct: isolated from porcine hearts; from tissue; host or cells: porcine heart
Method in brief: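 Porcine heart succinate dehydrogenase (2 nM) in 100 mM sodium phosphate pH 7.4, 0.3 mM EDTA, 20 mM sodium succinate and 53 μM DCIP at 23° C with stirring. DCIP reduction followed at 600 nm (ε 21 mM^−1 cm^−1); linear slope minus baseline gives initial rate.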

Phytophthora infestans = type: cell-based
[5] = tested on: Fusarium wilt of water melon; assay: Mycelial growth rate method; type: cell-based
[6] = strain SX18-59 (S), listed as compound 1
[7] = strain SX18-63 (R), listed as compound 1

T1 sequence (Q0QF01 43-664 partner): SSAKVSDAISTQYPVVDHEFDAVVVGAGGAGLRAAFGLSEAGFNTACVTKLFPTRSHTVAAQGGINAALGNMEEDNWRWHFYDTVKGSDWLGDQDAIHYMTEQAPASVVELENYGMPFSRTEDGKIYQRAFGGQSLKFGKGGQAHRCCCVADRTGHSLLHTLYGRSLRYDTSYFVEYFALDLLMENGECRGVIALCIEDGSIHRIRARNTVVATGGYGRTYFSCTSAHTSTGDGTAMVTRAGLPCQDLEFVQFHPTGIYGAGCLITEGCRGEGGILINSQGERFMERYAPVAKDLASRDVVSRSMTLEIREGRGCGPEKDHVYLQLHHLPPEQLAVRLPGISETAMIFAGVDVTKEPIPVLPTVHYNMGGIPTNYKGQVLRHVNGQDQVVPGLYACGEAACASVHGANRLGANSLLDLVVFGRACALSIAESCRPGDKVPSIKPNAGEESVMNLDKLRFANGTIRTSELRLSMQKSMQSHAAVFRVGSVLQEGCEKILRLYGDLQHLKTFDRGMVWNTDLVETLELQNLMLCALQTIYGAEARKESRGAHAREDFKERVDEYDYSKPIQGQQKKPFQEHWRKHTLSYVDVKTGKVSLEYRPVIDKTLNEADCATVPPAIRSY
T1 sequence (Q007T0 29-280): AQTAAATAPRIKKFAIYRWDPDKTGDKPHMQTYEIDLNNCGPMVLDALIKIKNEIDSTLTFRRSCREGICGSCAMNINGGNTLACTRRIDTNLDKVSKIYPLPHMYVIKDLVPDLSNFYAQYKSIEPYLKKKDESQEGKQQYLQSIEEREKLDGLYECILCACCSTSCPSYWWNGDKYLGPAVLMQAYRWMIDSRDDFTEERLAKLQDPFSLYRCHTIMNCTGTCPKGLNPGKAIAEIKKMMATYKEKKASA
T1 sequence (D0VWV4 30-169): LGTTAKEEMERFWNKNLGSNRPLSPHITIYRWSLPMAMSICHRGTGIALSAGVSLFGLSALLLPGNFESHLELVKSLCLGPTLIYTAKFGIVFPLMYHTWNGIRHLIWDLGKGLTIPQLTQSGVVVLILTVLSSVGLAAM
T1 sequence (A5GZW8 57-159 limits assumed): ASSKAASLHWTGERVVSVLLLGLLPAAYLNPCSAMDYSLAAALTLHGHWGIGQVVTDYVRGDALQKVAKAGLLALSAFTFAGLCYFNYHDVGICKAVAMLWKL

For `C=C(CN(C(=O)c1c(C(F)F)nn(C)c1F)C1CC1)c1ccc(Cl)cc1Cl` [Compound 1], the “Inhibition ratio (%) Phytophthora capsici” value (Phytophthora capsici; 1.5625 μg/mL) was “B (70% ≤ B < 80%)”, the “Inhibition ratio (%) Phytophthora capsici” value (Phytophthora capsici; 6.25 μg/mL) was “A (80% ≤ A ≤ 100%)” and the “Inhibition ratio (%) Phytophthora capsici” value (Phytophthora capsici; 25 μg/mL) was “A (80% ≤ A ≤ 100%)”. For the same molecule, the “Inhibition ratio (%) Sclerotinia sclerotiorum” value (Sclerotinia sclerotiorum; 1.5625 μg/mL) was “C (C <70%)”, the “Inhibition ratio (%) Sclerotinia sclerotiorum” value (Sclerotinia sclerotiorum; 6.25 μg/mL) was “A (80% ≤ A ≤ 100%)” and the “Inhibition ratio (%) Sclerotinia sclerotiorum” value (Sclerotinia sclerotiorum; 25 μg/mL) was “A (80% ≤ A ≤ 100%)”. The Controlling effect % (Sphaerotheca fuliginea [1]; 50 mg/L) was 82%, the Controlling effect % (Sphaerotheca fuliginea [1]; 50 mg/L, listed as compound 1) was “more than 80%” and the Controlling effect % (Sphaerotheca fuliginea [1]; 100 mg/L) was 88%. The Controlling effect % (Sphaerotheca fuliginea [1]; 100 mg/L, listed as compound 1) was “the same control effect as the current mainstream insecticides”, the Controlling effect % (Sphaerotheca fuliginea [1]; 200 mg/L) was 92% and the “Inhibition ratio (%) Gibberella zeae” value (Gibberella zeae; 1.5625 μg/mL) was “A (80% ≤ A ≤ 100%)”. The “Inhibition ratio (%) Gibberella zeae” value (Gibberella zeae; 6.25 μg/mL) was “A (80% ≤ A ≤ 100%)”, the “Inhibition ratio (%) Gibberella zeae” value (Gibberella zeae; 25 μg/mL) was “A (80% ≤ A ≤ 100%)” and the “Inhibition ratio (%) Alternaria solani” value (Alternaria solani; 1.5625 μg/mL) was “A (80% ≤ A ≤ 100%)”. For the same molecule, the “Inhibition ratio (%) Alternaria solani” value (Alternaria solani; 6.25 μg/mL) was “A (80% ≤ A ≤ 100%)”, the “Inhibition ratio (%) Alternaria solani” value (Alternaria solani; 25 μg/mL) was “A (80% ≤ A ≤ 100%)” and the Protective activity (Fusarium fujikura [2]; strain SX18-32 (S)) was 97.4%. For the same molecule, the Protective activity (Fusarium fujikura [2]; strain SX18-32 (S), listed as compound 1) was “more than 90%”, the Protective activity (Fusarium fujikura [2]; strain SX18-59 (S)) was 100.0% and the Protective activity (Fusarium fujikura [2]; [6]) was “more than 90%”. For the same molecule, the Protective activity (Fusarium fujikura [2]; strain SX18-63 (R)) was 93.7%, the Protective activity (Fusarium fujikura [2]; [7]) was “more than 90%” and the Therapeutic activity (Fusarium fujikura [3]; strain SX18-32 (S)) was 60.2%. It also gave a Therapeutic activity (Fusarium fujikura [3]; strain SX18-59 (S)) of 96.8%, a Therapeutic activity (Fusarium fujikura [3]; [6]) of 96.8% and a Therapeutic activity (Fusarium fujikura [3]; strain SX18-63 (R)) of 83.3%. The Therapeutic activity (Fusarium fujikura [3]; [7]) was “far better therapeutic effect”, the “Inhibition ratio (%) Alternaria alternata” value (Alternaria alternata; 1.5625 μg/mL) was “A (80% ≤ A ≤ 100%)” and the “Inhibition ratio (%) Alternaria alternata” value (Alternaria alternata; 6.25 μg/mL) was “A (80% ≤ A ≤ 100%)”. For the same molecule, the “Inhibition ratio (%) Alternaria alternata” value (Alternaria alternata; 25 μg/mL) was “A (80% ≤ A ≤ 100%)”, the pest or weed control at 100 µg/mL (Sphaerotheca fuliginea [4]) was 80 to 100% and the “Inhibition ratio (%) Rhizoctonia cerealis” value (Rhizoctonia cerealis; 1.5625 μg/mL) was “C (C <70%)”. The “Inhibition ratio (%) Rhizoctonia cerealis” value (Rhizoctonia cerealis; 6.25 μg/mL) was “B (70% ≤ B < 80%)”, the “Inhibition ratio (%) Rhizoctonia cerealis” value (Rhizoctonia cerealis; 25 μg/mL) was “A (80% ≤ A ≤ 100%)” and the pest or weed control at 100 µg/mL (Erysiphe graminis) was 80 to 100%. For the same molecule, the “Inhibition ratio (%) Corn big spot” value (Corn big spot; 1.5625 μg/mL) was “A (80% ≤ A ≤ 100%)”, the “Inhibition ratio (%) Corn big spot” value (Corn big spot; 6.25 μg/mL) was “A (80% ≤ A ≤ 100%)” and the “Inhibition ratio (%) Corn big spot” value (Corn big spot; 25 μg/mL) was “A (80% ≤ A ≤ 100%)”. For the same molecule, the inhibition at 10 µM (succinate dehydrogenase) was greater than 90%, the “Inhibition ratio (%) Phytophthora infestans” value (Phytophthora infestans; 1.5625 μg/mL) was “A (80% ≤ A ≤ 100%)” and the “Inhibition ratio (%) Phytophthora infestans” value (Phytophthora infestans; 6.25 μg/mL) was “A (80% ≤ A ≤ 100%)”. The “Inhibition ratio (%) Phytophthora infestans” value (Phytophthora infestans; 25 μg/mL) was “A (80% ≤ A ≤ 100%)”, the “Inhibition ratio (%) Fusarium wilt of water melon” value (shortened to “Inhibition ratio (%) Fusarium wilt”) ([5]; 1.5625 μg/mL) was “A (80% ≤ A ≤ 100%)” and the “Inhibition ratio (%) Fusarium wilt” value ([5]; 6.25 μg/mL) was “A (80% ≤ A ≤ 100%)”. The “Inhibition ratio (%) Fusarium wilt” value ([5]; 25 μg/mL) was “A (80% ≤ A ≤ 100%)”.
